According to the supplement of paper PMC6045584:
± gives the standard deviation of the averaged measurements.

How the values were obtained:
[1] = compound: COc1cc2ncnc(Nc3ccc(F)c(Cl)c3)c2cc1OCCCN1CCOCC1 [GEFITINIB]; assay: surviving fraction relative to DMSO-only wells; higher = less growth inhibition; conditions: exposure time: 5 days
Summary of the method: (§1)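 Log-phase tumour cell lines were seeded at 250–500 cells per well in 384-well plates. After 24 hours they were exposed continuously for five days to inhibitors at 0.5, 1, 5, 10, 50, 100, 500 and 1000 nM. Viability was read by CellTiter-Glo luminescence after 10 minutes at room temperature, and surviving fraction is luminescence normalised to the median of DMSO-only wells. Each line was screened three times and kept only if replicate Pearson r >0.7 and median Z' >0.3.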

[2] = compound: COCC[n+]1c2c(n(Cc3cnccn3)c1C)C(=O)c1ccccc1C2=O [YM155]; assay: as above; conditions: exposure time: 5 days
Summary of the method: as §1

Row | Test System | surviving fraction ([1]; 0.5 nM) | surviving fraction ([1]; 1 nM) | surviving fraction ([1]; 5 nM) | surviving fraction ([1]; 10 nM) | surviving fraction ([1]; 50 nM) | surviving fraction ([1]; 100 nM) | surviving fraction ([1]; 500 nM) | surviving fraction ([1]; 1000 nM) | surviving fraction ([2]; 0.5 nM) | surviving fraction ([2]; 1 nM) | surviving fraction ([2]; 5 nM) | surviving fraction ([2]; 10 nM) | surviving fraction ([2]; 50 nM) | surviving fraction ([2]; 100 nM) | surviving fraction ([2]; 500 nM) | surviving fraction ([2]; 1000 nM)
1 | MDAMB453 BREAST | 1.09 ± 0.045 | 1.07 ± 0.078 | 1.19 ± 0.078 | 1.1 ± 0.024 | 1.14 ± 0.053 | 1.13 ± 0.087 | 1.06 ± 0.05 | 1.04 ± 0.039 | 0.989 ± 0.048 | 0.949 ± 0.089 | 0.306 ± 0.021 | 0.2993 ± 0.0025 | 0.11 ± 0.0085 | 0.0773 ± 0.014 | 0.0533 ± 0.0076 | 0.057 ± 0.017
2 | VP229 BREAST | 1.14 ± 0.062 | 1.08 ± 0.09 | 1.07 ± 0.033 | 0.974 ± 0.098 | 0.875 ± 0.084 | 0.681 ± 0.042 | 0.347 ± 0.028 | 0.281 ± 0.008 | 1.04 ± 0.023 | 1.03 ± 0.18 | 0.903 ± 0.17 | 0.874 ± 0.081 | 0.265 ± 0.085 | 0.137 ± 0.0015 | 0.046 ± 0.01 | 0.042 ± 0.007
3 | 93VU HEADNECK | – | 1.07 ± 0.075 | 1.08 ± 0.027 | 1.04 ± 0.055 | 0.878 ± 0.044 | 0.751 ± 0.034 | 0.449 ± 0.044 | 0.383 ± 0.062 | 0.961 ± 0.099 | 0.982 ± 0.081 | 1.06 ± 0.061 | 1.045 ± 0.0081 | 0.839 ± 0.034 | 0.815 ± 0.06 | 0.193 ± 0.011 | 0.123 ± 0.027
4 | BT549 BREAST | 1.1 ± 0.18 | 1.03 ± 0.073 | 1.04 ± 0.13 | 0.946 ± 0.094 | 1.17 ± 0.14 | 1.21 ± 0.046 | 1.057 ± 0.007 | 1.11 ± 0.15 | 1.08 ± 0.11 | 1.03 ± 0.11 | 0.99 ± 0.0076 | 0.834 ± 0.11 | 0.256 ± 0.083 | 0.0713 ± 0.018 | 0.029 ± 0.008 | 0.0307 ± 0.0023
5 | OS25HAL BONE | 1.04 ± 0.052 | 1.04 ± 0.041 | 1.06 ± 0.035 | 1.09 ± 0.066 | 1.09 ± 0.069 | 1.15 ± 0.019 | 1.08 ± 0.069 | 1.05 ± 0.029 | 0.944 ± 0.046 | 0.987 ± 0.022 | 0.295 ± 0.029 | 0.158 ± 0.03 | 0.0603 ± 0.0068 | 0.0357 ± 0.0042 | 0.0193 ± 0.00058 | 0.0267 ± 0.0021
6 | SCC003 HEADNECK | 1.02 ± 0.057 | 1.01 ± 0.056 | 1.1 ± 0.027 | 0.995 ± 0.11 | 0.945 ± 0.026 | 0.857 ± 0.035 | 0.54 ± 0.043 | 0.47 ± 0.029 | 1.072 ± 0.0061 | 1.02 ± 0.071 | 0.82 ± 0.12 | 0.502 ± 0.14 | 0.086 ± 0.0066 | 0.052 ± 0.0046 | 0.024 | 0.025 ± 0.0017
7 | CHLA90 AUTONOMIC GANGLIA | 0.939 ± 0.022 | 0.905 ± 0.089 | 0.873 ± 0.052 | 0.848 ± 0.056 | 0.902 ± 0.069 | 0.876 ± 0.041 | 0.881 ± 0.044 | 0.801 ± 0.066 | 0.807 ± 0.017 | 0.926 ± 0.075 | 0.734 ± 0.057 | 0.44 ± 0.057 | 0.106 ± 0.028 | 0.0633 ± 0.013 | 0.025 ± 0.0027 | 0.0273 ± 0.0015
8 | MCF7 BREAST | 0.935 ± 0.02 | 0.921 ± 0.032 | 0.924 ± 0.042 | 0.935 ± 0.023 | 0.965 ± 0.017 | 0.951 ± 0.046 | 0.979 ± 0.02 | 0.964 ± 0.027 | 0.853 ± 0.076 | 0.883 ± 0.018 | 0.679 ± 0.063 | 0.368 ± 0.033 | 0.0596 ± 0.0041 | 0.043 ± 0.003 | 0.0207 ± 0.00033 | 0.0226 ± 0.0014
9 | CAL72 BONE | 1.01 ± 0.11 | 1.02 ± 0.088 | 1.05 ± 0.099 | 1.02 ± 0.082 | 1.11 ± 0.054 | 1.13 ± 0.098 | 1.07 ± 0.074 | 1.05 ± 0.11 | 1.05 ± 0.081 | 1.01 ± 0.097 | 0.347 ± 0.082 | 0.202 ± 0.034 | 0.058 ± 0.005 | 0.0473 ± 0.0047 | 0.0423 ± 0.0029 | 0.054 ± 0.0044
10 | HCC1395 BREAST | 1.07 ± 0.057 | 1.07 ± 0.035 | 1.18 ± 0.12 | 1.22 ± 0.17 | 1.24 ± 0.059 | 1.21 ± 0.045 | 1.2 ± 0.085 | 1.11 ± 0.039 | 0.883 ± 0.23 | 1.07 ± 0.031 | 1.15 ± 0.035 | 1.01 ± 0.056 | 0.733 ± 0.11 | 0.427 ± 0.12 | 0.278 ± 0.079 | 0.239 ± 0.065
11 | MDAMB134 BREAST | 0.881 ± 0.014 | 0.974 ± 0.067 | 0.775 ± 0.21 | 0.873 ± 0.0099 | 1.2 ± 0.2 | 1.13 ± 0.023 | 1 ± 0.067 | 1.1 ± 0.064 | 0.783 ± 0.027 | 0.855 ± 0.052 | 0.759 ± 0.037 | 0.5665 ± 0.005 | 0.775 ± 0.051 | 0.634 ± 0.13 | 0.567 ± 0.0014 | 0.435 ± 0.064
12 | HCC1954 BREAST | 1.25 ± 0.17 | 1.25 ± 0.25 | 1.01 ± 0.029 | 1.2 ± 0.13 | 0.855 ± 0.011 | 0.702 ± 0.0081 | 0.459 ± 0.064 | 0.408 ± 0.016 | 1.08 ± 0.077 | 0.922 ± 0.12 | 0.987 ± 0.051 | 0.467 ± 0.079 | 0.0892 ± 0.02 | 0.035 ± 0.0064 | 0.0335 ± 0.00071 | 0.0333 ± 0.0053
13 | SIHA CERVIX | 1.01 ± 0.017 | 1.01 ± 0.076 | 1.08 ± 0.053 | 1.07 ± 0.091 | 1.12 ± 0.11 | 1.1 ± 0.059 | 0.99 ± 0.084 | 0.956 ± 0.061 | 0.917 ± 0.056 | 0.938 ± 0.069 | 0.977 ± 0.049 | 0.735 ± 0.011 | 0.0433 ± 0.0055 | 0.022 ± 0.002 | 0.0197 ± 0.00058 | 0.0243 ± 0.0015
14 | HOSMNG BONE | 1.01 ± 0.035 | 0.993 ± 0.0089 | 0.971 ± 0.092 | 1.03 ± 0.073 | 1.05 ± 0.085 | 1.14 ± 0.026 | 1.09 ± 0.091 | 1.07 ± 0.021 | 0.934 ± 0.09 | 0.929 ± 0.1 | 0.889 ± 0.096 | 0.87 ± 0.11 | 0.198 ± 0.0064 | 0.132 ± 0.017 | 0.0837 ± 0.04 | 0.061 ± 0.0036
15 | HU09 BONE | 0.997 ± 0.069 | 0.921 ± 0.055 | 0.972 ± 0.023 | 1.02 ± 0.079 | 1.1 ± 0.018 | 1.09 ± 0.075 | 1.1 ± 0.16 | 0.952 ± 0.1 | 0.942 ± 0.072 | 1.01 ± 0.13 | 0.925 ± 0.053 | 0.917 ± 0.11 | 0.5387 ± 0.004 | 0.374 ± 0.016 | 0.161 ± 0.0055 | 0.0983 ± 0.0055
16 | MG63 BONE | 1.02 ± 0.024 | 0.998 ± 0.013 | 1.09 ± 0.041 | 1.08 ± 0.038 | 1.11 ± 0.046 | 1.08 ± 0.027 | 0.999 ± 0.033 | 1.01 ± 0.033 | 0.978 ± 0.036 | 1.04 ± 0.057 | 0.783 ± 0.048 | 0.659 ± 0.026 | 0.0477 ± 0.0021 | 0.0237 ± 0.0015 | 0.021 ± 0.001 | 0.027 ± 0.0017
17 | SUM159 BREAST | 1.1 ± 0.026 | 1.1 ± 0.034 | 1.09 ± 0.02 | 1.06 ± 0.025 | 1.08 ± 0.014 | 1.04 ± 0.031 | 1.03 ± 0.036 | 1.036 ± 0.0092 | 0.994 ± 0.042 | 1.02 ± 0.032 | 0.536 ± 0.072 | 0.537 ± 0.057 | 0.069 ± 0.0098 | 0.0383 ± 0.0015 | 0.0217 ± 0.00058 | 0.0273 ± 0.00058
18 | MDAMB157 BREAST | 1.04 ± 0.033 | 0.968 ± 0.067 | 0.92 ± 0.057 | 1.01 ± 0.059 | 0.911 ± 0.1 | 1.02 ± 0.053 | 0.991 ± 0.026 | 0.864 ± 0.066 | 0.958 ± 0.024 | 1.02 ± 0.092 | 0.77 ± 0.037 | 0.799 ± 0.039 | 0.0573 ± 0.024 | 0.031 ± 0.003 | 0.0297 ± 0.0047 | 0.039 ± 0.0046
19 | CAL120 BREAST | 0.964 ± 0.046 | 0.965 ± 0.031 | 0.968 ± 0.025 | 0.956 ± 0.039 | 1.016 ± 0.0095 | 0.985 ± 0.031 | 0.995 ± 0.035 | 0.93 ± 0.042 | 0.934 ± 0.049 | 0.905 ± 0.073 | 0.148 ± 0.021 | 0.0712 ± 0.0018 | 0.0243 ± 0.001 | 0.0215 ± 0.00087 | 0.016 ± 0.00087 | 0.023 ± 0.0017
20 | ZR751 BREAST | 1.22 ± 0.054 | 1 ± 0.1 | 1.13 ± 0.067 | 0.983 ± 0.046 | 0.901 ± 0.071 | 0.994 ± 0.035 | 0.734 ± 0.034 | 0.802 ± 0.12 | 0.835 ± 0.1 | 0.95 ± 0.085 | 0.559 ± 0.083 | 0.411 ± 0.07 | 0.128 ± 0.017 | 0.0917 ± 0.0067 | 0.0307 ± 0.0055 | 0.0287 ± 0.0031
21 | SYO1 SYNOVIAL | 1.05 ± 0.068 | 0.97 ± 0.049 | 0.982 ± 0.068 | 0.98 ± 0.012 | 0.984 ± 0.017 | 0.898 ± 0.024 | 1 ± 0.021 | 0.935 ± 0.024 | 0.847 ± 0.01 | 0.967 ± 0.035 | 0.761 ± 0.03 | 0.514 ± 0.012 | 0.0558 ± 0.0015 | 0.0337 ± 0.0012 | 0.0242 ± 0.00051 | 0.0279 ± 0.0021
